From PubChem BioAssay (NCI)
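How tested: cells in 96-well plates exposed to compound for 48 hours at five concentrations. GI50 = concentration required for 50% inhibition of growth. TGI: concentration producing complete growth inhibition.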

Legend:
Assay in all cases: DTP human tumour cell line panel, 48 h
HCC-2998 colon = system: HCC-2998 colon
SW-620 colon = system: SW-620 colon
SNB-19 CNS = system: SNB-19 CNS
BT-549 breast = system: BT-549 breast
SF-539 CNS = system: SF-539 CNS
ACHN renal = system: ACHN renal
CAKI-1 renal = system: CAKI-1 renal
SK-OV-3 ovarian = system: SK-OV-3 ovarian
UACC-257 melanoma = system: UACC-257 melanoma
SF-268 CNS = system: SF-268 CNS
A549 NSCLC = system: A549 NSCLC
DU-145 prostate = system: DU-145 prostate
EKVX NSCLC = system: EKVX NSCLC
UO-31 renal = system: UO-31 renal
KM12 colon = system: KM12 colon
SR leukemia = system: SR leukemia
PC-3 prostate = system: PC-3 prostate
SN12C renal = system: SN12C renal
MDA-MB-231 breast = system: MDA-MB-231 breast
TK-10 renal = system: TK-10 renal
NCI-H522 lung = system: NCI-H522 lung
LOX IMVI melanoma = system: LOX IMVI melanoma
HT29 colon = system: HT29 colon
HCT-15 colon = system: HCT-15 colon
SK-MEL-2 melanoma = system: SK-MEL-2 melanoma
NCI-H460 lung = system: NCI-H460 lung
SNB-75 CNS = system: SNB-75 CNS
RXF 393 renal = system: RXF 393 renal
HL-60(TB) leukemia = system: HL-60(TB) leukemia
M14 melanoma = system: M14 melanoma
OVCAR-4 ovarian = system: OVCAR-4 ovarian
MALME-3M melanoma = system: MALME-3M melanoma
OVCAR-5 ovarian = system: OVCAR-5 ovarian
T-47D breast = system: T-47D breast
SK-MEL-5 melanoma = system: SK-MEL-5 melanoma
SK-MEL-28 melanoma = system: SK-MEL-28 melanoma
COLO 205 colon = system: COLO 205 colon
MCF7 breast = system: MCF7 breast
HOP-92 NSCLC = system: HOP-92 NSCLC
UACC-62 melanoma = system: UACC-62 melanoma
MDA-MB-435 = system: MDA-MB-435
NCI-H226 lung = system: NCI-H226 lung
OVCAR-3 ovarian = system: OVCAR-3 ovarian
NCI-H23 lung = system: NCI-H23 lung
SF-295 CNS = system: SF-295 CNS
A498 renal = system: A498 renal
IGROV1 ovarian = system: IGROV1 ovarian
CCRF-CEM leukemia = system: CCRF-CEM leukemia
MOLT-4 leukemia = system: MOLT-4 leukemia

With `COc1cc(C2CC(c3cccc(Nc4ccncc4)c3)=NN2c2ccccc2)cc(OC)c1OC` (stereo not drawn) the GI50 (HCC-2998 colon) was 1800 nM, the TGI (HCC-2998 colon) was 3300 nM and the GI50 (SW-620 colon) was 1660 nM. For the same compound, the TGI (SW-620 colon) was 3160 nM, the GI50 (SNB-19 CNS) was 1640 nM and the TGI (SNB-19 CNS) was 3290 nM. The GI50 (BT-549 breast) was 1800 nM, the TGI (BT-549 breast) was 3560 nM and the GI50 (SF-539 CNS) was 1710 nM. It also gave a TGI (SF-539 CNS) of 3110 nM, a GI50 (ACHN renal) of 1700 nM and a TGI (ACHN renal) of 3110 nM. For the same compound, the GI50 (CAKI-1 renal) was 1550 nM, the TGI (CAKI-1 renal) was 3010 nM and the GI50 (SK-OV-3 ovarian) was 1780 nM. For the same compound, the TGI (SK-OV-3 ovarian) was 3500 nM, the GI50 (UACC-257 melanoma) was 1950 nM and the TGI (UACC-257 melanoma) was 3820 nM. For the same compound, the GI50 (SF-268 CNS) was 1700 nM, the TGI (SF-268 CNS) was 3450 nM and the GI50 (A549 NSCLC) was 1730 nM. For the same compound, the TGI (A549 NSCLC) was 3530 nM, the GI50 (DU-145 prostate) was 1790 nM and the TGI (DU-145 prostate) was 3400 nM. It also gave a GI50 (EKVX NSCLC) of 1800 nM, a TGI (EKVX NSCLC) of 4160 nM and a GI50 (UO-31 renal) of 1420 nM. The TGI (UO-31 renal) was 2810 nM, the GI50 (KM12 colon) was 1720 nM and the TGI (KM12 colon) was 3460 nM. It also gave a GI50 (SR leukemia) of 1560 nM, a TGI (SR leukemia) of 3580 nM and a GI50 (PC-3 prostate) of 1790 nM. The TGI (PC-3 prostate) was 4230 nM, the GI50 (SN12C renal) was 1600 nM and the TGI (SN12C renal) was 3050 nM. It also gave a GI50 (MDA-MB-231 breast) of 1520 nM, a TGI (MDA-MB-231 breast) of 2890 nM and a GI50 (TK-10 renal) of 1790 nM. The TGI (TK-10 renal) was 3420 nM, the GI50 (NCI-H522 lung) was 1750 nM and the TGI (NCI-H522 lung) was 3620 nM. For the same compound, the GI50 (LOX IMVI melanoma) was 1760 nM, the TGI (LOX IMVI melanoma) was 3150 nM and the GI50 (HT29 colon) was 1930 nM. The TGI (HT29 colon) was 4530 nM, the GI50 (HCT-15 colon) was 1910 nM and the TGI (HCT-15 colon) was 3750 nM. The GI50 (SK-MEL-2 melanoma) was 1960 nM, the TGI (SK-MEL-2 melanoma) was 3800 nM and the GI50 (NCI-H460 lung) was 1770 nM. The TGI (NCI-H460 lung) was 3270 nM, the GI50 (SNB-75 CNS) was 1420 nM and the TGI (SNB-75 CNS) was 3740 nM. It also gave a GI50 (RXF 393 renal) of 1560 nM, a TGI (RXF 393 renal) of 2950 nM and a GI50 (HL-60(TB) leukemia) of 1720 nM. It also gave a TGI (HL-60(TB) leukemia) of 3650 nM, a GI50 (M14 melanoma) of 1910 nM and a TGI (M14 melanoma) of 4120 nM. The GI50 (OVCAR-4 ovarian) was 1710 nM, the TGI (OVCAR-4 ovarian) was 3730 nM and the GI50 (MALME-3M melanoma) was 1610 nM. The TGI (MALME-3M melanoma) was 3030 nM, the GI50 (OVCAR-5 ovarian) was 2170 nM and the TGI (OVCAR-5 ovarian) was 5230 nM. For the same compound, the GI50 (T-47D breast) was 2120 nM, the TGI (T-47D breast) was 6610 nM and the GI50 (SK-MEL-5 melanoma) was 1780 nM. It also gave a TGI (SK-MEL-5 melanoma) of 3170 nM, a GI50 (SK-MEL-28 melanoma) of 1770 nM and a TGI (SK-MEL-28 melanoma) of 3300 nM. It also gave a GI50 (COLO 205 colon) of 1800 nM, a TGI (COLO 205 colon) of 4250 nM and a GI50 (MCF7 breast) of 1840 nM. For the same compound, the TGI (MCF7 breast) was 4040 nM, the GI50 (HOP-92 NSCLC) was 1410 nM and the TGI (HOP-92 NSCLC) was 2940 nM. The GI50 (UACC-62 melanoma) was 1730 nM, the TGI (UACC-62 melanoma) was 3180 nM and the GI50 (MDA-MB-435) was 1610 nM. For the same compound, the TGI (MDA-MB-435) was 3120 nM, the GI50 (NCI-H226 lung) was 2110 nM and the TGI (NCI-H226 lung) was 5270 nM. The GI50 (OVCAR-3 ovarian) was 1660 nM, the TGI (OVCAR-3 ovarian) was 3140 nM and the GI50 (NCI-H23 lung) was 1940 nM. The TGI (NCI-H23 lung) was 3870 nM, the GI50 (SF-295 CNS) was 1810 nM and the TGI (SF-295 CNS) was 3280 nM. The GI50 (A498 renal) was 1630 nM, the TGI (A498 renal) was 7140 nM and the GI50 (IGROV1 ovarian) was 1770 nM. The TGI (IGROV1 ovarian) was 3610 nM, the GI50 (CCRF-CEM leukemia) was 2930 nM and the TGI (CCRF-CEM leukemia) was 8530 nM. The GI50 (MOLT-4 leukemia) was 1860 nM and the TGI (MOLT-4 leukemia) was 4700 nM.
